This is an account of results in patent US20120220581A1, “IMIDAZO[1,2-b]PYRIDAZINE DERIVATIVES AND THEIR USE AS PDE10 INHIBITORS” (Janssen-Cilag, S.A., priority 2009, published 2012).

SMILES strings stand for the structures. Read-outs that look alike come from different tables or passages of the source.

For assay [1], the target named is PDE5A3 (Homo sapiens, UniProt O76074). The assay is described as follows: In vitro PDE selectivity assay (SPA), PDE5A3. The assay is classed as biochemical. The following applies: hPDE5A3; read-out: PDE 5A3 (expressed as pIC50) (converted). How it is done: (§1) Rat recombinant PDE10A (rPDE10A2) was expressed in Sf9 cells using a recombinant rPDE10A baculovirus construct. Cells were harvested after 48 h of infection and the rPDE10A protein was purified by metal chelate chromatography on Ni-sepharose 6FF. Tested compounds were dissolved and diluted in 100% DMSO to a concentration 100 fold of the final concentration in the assay. Compound dilutions (0.4 μl) were added in 384 well plates to 20 μl of incubation buffer (50 mM Tris pH 7.8, 8.3 mM MgCl2, 1.7 mM EGTA). 10 μl of rPDE10A enzyme in incubation buffer was added and the reaction was started by addition of 10 μl substrate to a final concentration of 60 nM cAMP and 0.008 μCi ^3H-cAMP. The reaction was incubated for 60 minutes at room temperature. After incubation, the reaction was stopped with 20 μl of stop solution consisting of 17.8 mg/ml PDE SPA (scintillation proximity assay) beads. After sedimentation of the beads during 30 minutes the radioactivity was measured in a Perkin Elmer Topcount scintillation counter and results were expressed as cpm. For blanc values the enzyme was omitted from the reaction and replaced by incubation buffer. Control values were obtained by addition of a final concentration of 1% DMSO instead of compound. The same assay principle is applied for the measurement of the affinity of the compound for other members of the PDE family with appropriate modifications in incubation buffer, substrate concentration, incubation time and stop solution. An overview of the different protocols is presented in table A. A best fit curve is fitted by a minimum sum of squares method to the plot of % of control value substracted with blanc value versus compound concentration and the half maximal inhibitory concentration (IC50) value is derived from this curve.
(§2) The compounds of the invention are generally selective for PDE10 compared to other PDEs and there are a few that also have affinity for PDE1B1, 4D3 and 5A3.

Assay [2] addresses T1, PDE10 (Rattus norvegicus, UniProt Q9QYJ6).
T1 construct: from tissue; host or cells: rat brain sections, striatum (in vivo dosing, ex vivo autoradiography)
T1 sequence (Q9QYJ6 1-794): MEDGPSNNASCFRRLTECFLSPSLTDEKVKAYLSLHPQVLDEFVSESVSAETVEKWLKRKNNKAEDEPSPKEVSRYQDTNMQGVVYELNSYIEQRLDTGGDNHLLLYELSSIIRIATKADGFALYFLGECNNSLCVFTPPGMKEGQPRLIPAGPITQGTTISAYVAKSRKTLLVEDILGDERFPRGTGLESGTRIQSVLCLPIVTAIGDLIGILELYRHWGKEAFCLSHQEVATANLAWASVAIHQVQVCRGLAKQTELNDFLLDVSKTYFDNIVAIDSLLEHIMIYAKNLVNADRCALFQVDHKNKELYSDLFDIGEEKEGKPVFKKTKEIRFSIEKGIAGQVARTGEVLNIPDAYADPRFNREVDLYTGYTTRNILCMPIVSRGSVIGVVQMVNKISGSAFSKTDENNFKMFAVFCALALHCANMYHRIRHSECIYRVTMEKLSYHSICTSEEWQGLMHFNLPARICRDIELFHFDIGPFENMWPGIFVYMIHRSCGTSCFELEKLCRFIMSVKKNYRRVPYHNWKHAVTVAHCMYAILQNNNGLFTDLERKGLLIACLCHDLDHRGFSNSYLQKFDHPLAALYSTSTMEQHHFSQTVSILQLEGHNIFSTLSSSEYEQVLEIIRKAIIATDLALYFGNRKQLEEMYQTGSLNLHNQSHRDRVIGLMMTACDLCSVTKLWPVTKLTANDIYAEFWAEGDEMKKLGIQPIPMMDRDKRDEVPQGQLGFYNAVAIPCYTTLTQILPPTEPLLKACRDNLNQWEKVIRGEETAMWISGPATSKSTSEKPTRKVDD
As to the kind of experiment: PDE10 occupancy ([3H]-MP-10, striatum). The following applies: for ED50 / receptor occupancy at 10 mg/kg: rat, sc; for ED50: dose response, subcutaneous administration, read-out: PDE10 in vivo occupancy ED50 sc; for receptor occupancy at 10 mg/kg: single dose 10 mg/kg, subcutaneous, read-out: SD sc % occupancy at 10 mg/kg. The assay is classed as in vivo. As to the method: Dose-response or single dose experiments were performed to measure PDE10 occupancy 1 hour after subcutaneous (s.c.) or oral (p.o.) administration. Male Wistar rats (200 g) were treated by s.c. or p.o. administration of various PDE10 inhibitors. The PDE10 radioligand [^3H]-MP-10 (10 μCi/animal) was injected intravenously (i.v.) 30 minutes before sacrifice. Brains were immediately removed from the skull and rapidly frozen. Twenty μm-thick brain sections were cut using a cryostat-microtome, thaw-mounted on microscope slides and loaded in a β-imager to quantify PDE10 occupancy in the striatum.

Assay [3] deals with PDE4D3 (Homo sapiens, UniProt Q08499). The assay is described as follows: In vitro PDE selectivity assay (SPA), PDE4D3. The assay is classed as biochemical. Particulars: hPDE4D3; read-out: PDE 4D3 (expressed as pIC50) (converted). How it is done:
as §1, §2

Assay [4] concerns the target other members of the PDE family (Homo sapiens, UniProt Q13946). The assay is described as follows: In vitro PDE selectivity assay (SPA), other members of the PDE family (protocols in Table A). The assay is classed as biochemical. Particulars: hPDE7A1; read-out: PDE 7A (expressed as pIC50) (converted). The gist of the method: (§3)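 Inhibition of each PDE isoform was measured by scintillation proximity assay with ³H-cyclic nucleotide substrate, using incubation buffer, substrate concentration, incubation time and stop solution adapted per isoform. Compounds were tested in dose-response against 1% DMSO controls and enzyme-free blanks. IC50 came from a least-squares fit of blank-subtracted % of control versus concentration.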

Assay [5] has as its target other members of the PDE family (Homo sapiens, UniProt O76083). The assay is described as above. The assay is classed as biochemical. The following applies: hPDE9A; read-out: PDE 9A (expressed as pIC50) (converted). The gist of the method:
as §3

Assay [6] deals with other members of the PDE family (Homo sapiens, UniProt Q14432). The description is as above. Particulars: hPDE3A; read-out: PDE 3A (expressed as pIC50) (converted). The assay is classed as biochemical. In a few lines:
as §3

Assay [7] concerns the target other members of the PDE family (Homo sapiens, UniProt O00408). The assay is described as above. Particulars: hPDE2A; read-out: PDE 2A (expressed as pIC50) (converted). The assay is classed as biochemical. In a few lines:
as §3

Assay [8] deals with other members of the PDE family (Homo sapiens, UniProt Q9HCR9). Described as above. The assay is classed as biochemical. Particulars: hPDE11A4; read-out: PDE 11A4 (expressed as pIC50) (converted). The gist of the method:
as §3

Assay [9] deals with T2, Rat recombinant PDE10A (rPDE10A2) (Rattus norvegicus, UniProt Q9QYJ6).
T2 construct: inferred from the Ni metal chelate purification; made in house; host or cells: Sf9 insect cells (baculovirus)
T2 sequence (Q9QYJ6 1-794): T1 sequence (Q9QYJ6 1-794)
As to the kind of experiment: In vitro assay PDE10A (SPA, 3H-cAMP). The assay is classed as biochemical. In a few lines:
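Rat PDE10A2 expressed in Sf9 cells and Ni-purified; incubated with 60 nM cAMP plus 0.008 μCi 3H-cAMP in 50 mM Tris pH 7.8, 8.3 mM MgCl2, 1.7 mM EGTA for 60 min at room temperature. Product quantified by scintillation proximity counting; final DMSO 1%.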

In assay [10] the test system is apomorphine-induced stereotypy in rats. The assay is described as follows: Apomorphine-induced stereotypy in rats (APO). The following applies: Rattus norvegicus; dose at which 50% of the tested animals show the effect; ≧: active in 30% of the animals at the indicated dose; ≦: active in 60%. The assay is classed as in vivo. How it is done:
Apomorphine (1.0 mg/kg, i.v.)-induced stereotypy (compulsive sniffing, licking, chewing) was scored every 5 min over the first hour after injection of apomorphine, following a 1 hour interval pre-treatment with the test compound. The score system was: (3) pronounced, (2) moderate, (1) slight, and (0) absent.

Where [11] appears, read: Table 4 in vitro selectivity, read-out: PDE 10A2 (expressed as pIC50) (converted).
Where [12] appears, read: pIC50 corresponds to the −log IC50 expressed in mol/L, read-out: PDE10A2 pIC50 (converted).

other members of the PDE family (Homo sapiens, UniProt Q14432), sequence (Q14432 whole entry): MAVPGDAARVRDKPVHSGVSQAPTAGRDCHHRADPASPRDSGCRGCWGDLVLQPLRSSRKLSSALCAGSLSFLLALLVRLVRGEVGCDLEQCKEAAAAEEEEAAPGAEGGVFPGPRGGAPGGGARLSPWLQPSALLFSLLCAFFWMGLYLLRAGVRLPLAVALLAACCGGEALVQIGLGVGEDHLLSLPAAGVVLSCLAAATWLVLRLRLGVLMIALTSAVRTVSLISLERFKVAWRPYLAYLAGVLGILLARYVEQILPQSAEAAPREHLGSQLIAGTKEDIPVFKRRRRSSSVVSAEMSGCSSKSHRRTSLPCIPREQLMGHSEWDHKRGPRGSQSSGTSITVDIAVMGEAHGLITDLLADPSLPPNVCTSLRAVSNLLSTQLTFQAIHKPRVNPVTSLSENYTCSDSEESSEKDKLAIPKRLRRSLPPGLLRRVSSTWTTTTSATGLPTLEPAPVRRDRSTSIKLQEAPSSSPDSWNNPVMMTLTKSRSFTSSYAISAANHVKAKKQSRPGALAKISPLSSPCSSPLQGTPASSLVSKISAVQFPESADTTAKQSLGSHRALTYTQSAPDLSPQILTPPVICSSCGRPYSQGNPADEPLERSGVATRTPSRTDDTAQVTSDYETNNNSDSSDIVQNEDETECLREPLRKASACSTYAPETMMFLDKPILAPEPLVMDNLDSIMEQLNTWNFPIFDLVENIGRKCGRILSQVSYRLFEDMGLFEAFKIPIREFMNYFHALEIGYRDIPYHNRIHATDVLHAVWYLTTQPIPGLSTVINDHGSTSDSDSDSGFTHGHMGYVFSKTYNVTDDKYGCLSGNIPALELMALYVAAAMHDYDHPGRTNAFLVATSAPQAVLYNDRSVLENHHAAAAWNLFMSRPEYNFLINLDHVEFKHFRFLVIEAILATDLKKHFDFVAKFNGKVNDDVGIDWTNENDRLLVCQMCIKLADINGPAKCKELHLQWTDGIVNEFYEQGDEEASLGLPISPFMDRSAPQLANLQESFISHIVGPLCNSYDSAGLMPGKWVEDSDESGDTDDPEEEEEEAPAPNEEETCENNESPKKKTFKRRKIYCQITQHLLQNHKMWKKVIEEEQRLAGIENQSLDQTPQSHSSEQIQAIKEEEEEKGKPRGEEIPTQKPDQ
other members of the PDE family (Homo sapiens, UniProt Q13946), sequence (Q13946 whole entry, canonical isoform): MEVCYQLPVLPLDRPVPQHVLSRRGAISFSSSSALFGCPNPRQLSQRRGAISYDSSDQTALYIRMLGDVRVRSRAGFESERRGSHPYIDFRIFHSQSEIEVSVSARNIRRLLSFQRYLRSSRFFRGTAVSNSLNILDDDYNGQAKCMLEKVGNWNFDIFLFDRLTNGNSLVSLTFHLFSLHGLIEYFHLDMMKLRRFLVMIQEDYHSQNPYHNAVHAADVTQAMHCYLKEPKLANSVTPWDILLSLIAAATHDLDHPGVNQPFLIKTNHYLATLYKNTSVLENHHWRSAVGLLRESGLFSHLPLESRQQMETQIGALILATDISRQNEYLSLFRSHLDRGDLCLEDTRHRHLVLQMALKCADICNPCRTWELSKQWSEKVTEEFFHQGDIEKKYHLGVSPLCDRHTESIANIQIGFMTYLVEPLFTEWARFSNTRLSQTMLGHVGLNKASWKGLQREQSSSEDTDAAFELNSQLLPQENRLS
PDE4D3, sequence (Q08499 1-673 isoform Q08499-2): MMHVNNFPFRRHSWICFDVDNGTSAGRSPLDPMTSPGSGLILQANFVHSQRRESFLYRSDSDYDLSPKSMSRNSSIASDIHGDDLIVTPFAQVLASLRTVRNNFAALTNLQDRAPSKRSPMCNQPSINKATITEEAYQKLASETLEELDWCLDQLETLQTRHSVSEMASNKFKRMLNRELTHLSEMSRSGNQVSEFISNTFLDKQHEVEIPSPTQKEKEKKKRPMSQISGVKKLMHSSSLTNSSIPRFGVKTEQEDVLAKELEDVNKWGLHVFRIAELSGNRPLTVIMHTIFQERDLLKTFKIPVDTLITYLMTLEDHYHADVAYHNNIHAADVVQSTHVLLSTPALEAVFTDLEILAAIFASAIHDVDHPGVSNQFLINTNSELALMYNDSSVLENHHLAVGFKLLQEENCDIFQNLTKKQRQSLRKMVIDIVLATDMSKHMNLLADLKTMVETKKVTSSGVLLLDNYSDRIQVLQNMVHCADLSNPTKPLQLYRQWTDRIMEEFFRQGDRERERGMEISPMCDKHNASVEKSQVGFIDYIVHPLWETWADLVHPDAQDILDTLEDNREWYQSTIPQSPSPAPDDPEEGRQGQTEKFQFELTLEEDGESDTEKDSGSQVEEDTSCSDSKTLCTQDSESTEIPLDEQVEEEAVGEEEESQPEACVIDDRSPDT
other members of the PDE family (Homo sapiens, UniProt O00408), sequence (O00408 whole entry): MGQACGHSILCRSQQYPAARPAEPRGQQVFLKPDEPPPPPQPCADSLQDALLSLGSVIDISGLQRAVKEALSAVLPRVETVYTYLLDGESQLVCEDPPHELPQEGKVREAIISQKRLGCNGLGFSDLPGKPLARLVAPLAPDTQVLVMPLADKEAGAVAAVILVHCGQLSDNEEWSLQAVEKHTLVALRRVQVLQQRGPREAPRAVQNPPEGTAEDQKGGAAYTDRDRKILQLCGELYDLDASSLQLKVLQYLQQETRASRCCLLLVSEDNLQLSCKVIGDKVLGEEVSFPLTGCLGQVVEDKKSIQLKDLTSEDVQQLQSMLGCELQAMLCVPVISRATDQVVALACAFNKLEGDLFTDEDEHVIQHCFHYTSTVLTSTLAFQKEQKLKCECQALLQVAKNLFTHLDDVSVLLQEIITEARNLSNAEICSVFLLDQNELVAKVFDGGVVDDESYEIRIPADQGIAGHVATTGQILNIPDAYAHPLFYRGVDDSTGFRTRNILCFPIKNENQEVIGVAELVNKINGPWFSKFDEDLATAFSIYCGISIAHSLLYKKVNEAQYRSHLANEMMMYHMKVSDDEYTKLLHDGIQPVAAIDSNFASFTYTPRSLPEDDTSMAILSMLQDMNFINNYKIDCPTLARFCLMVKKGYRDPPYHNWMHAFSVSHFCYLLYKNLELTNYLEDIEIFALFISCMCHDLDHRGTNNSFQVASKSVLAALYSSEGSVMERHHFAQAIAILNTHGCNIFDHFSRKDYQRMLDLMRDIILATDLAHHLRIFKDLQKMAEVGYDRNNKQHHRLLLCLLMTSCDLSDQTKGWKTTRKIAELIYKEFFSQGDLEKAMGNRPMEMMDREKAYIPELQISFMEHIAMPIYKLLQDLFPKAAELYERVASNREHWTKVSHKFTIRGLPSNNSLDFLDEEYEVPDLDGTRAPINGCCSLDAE
other members of the PDE family (Homo sapiens, UniProt O76083), sequence (O76083 whole entry): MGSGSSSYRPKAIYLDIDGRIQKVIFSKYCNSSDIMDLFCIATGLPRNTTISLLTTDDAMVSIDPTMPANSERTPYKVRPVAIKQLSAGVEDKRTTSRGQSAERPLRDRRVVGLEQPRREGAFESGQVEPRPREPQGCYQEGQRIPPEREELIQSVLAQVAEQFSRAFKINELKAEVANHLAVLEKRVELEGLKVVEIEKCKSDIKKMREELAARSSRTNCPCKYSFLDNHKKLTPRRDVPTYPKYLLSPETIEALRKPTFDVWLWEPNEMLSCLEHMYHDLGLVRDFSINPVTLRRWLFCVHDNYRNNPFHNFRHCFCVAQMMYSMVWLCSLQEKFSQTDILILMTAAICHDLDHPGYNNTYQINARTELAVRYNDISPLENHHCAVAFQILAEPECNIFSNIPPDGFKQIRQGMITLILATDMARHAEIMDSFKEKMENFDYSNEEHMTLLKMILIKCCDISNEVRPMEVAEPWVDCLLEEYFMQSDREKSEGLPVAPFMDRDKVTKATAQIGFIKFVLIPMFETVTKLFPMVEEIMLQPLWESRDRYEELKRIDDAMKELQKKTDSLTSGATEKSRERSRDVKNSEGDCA
other members of the PDE family (Homo sapiens, UniProt Q9HCR9), sequence (Q9HCR9 whole entry): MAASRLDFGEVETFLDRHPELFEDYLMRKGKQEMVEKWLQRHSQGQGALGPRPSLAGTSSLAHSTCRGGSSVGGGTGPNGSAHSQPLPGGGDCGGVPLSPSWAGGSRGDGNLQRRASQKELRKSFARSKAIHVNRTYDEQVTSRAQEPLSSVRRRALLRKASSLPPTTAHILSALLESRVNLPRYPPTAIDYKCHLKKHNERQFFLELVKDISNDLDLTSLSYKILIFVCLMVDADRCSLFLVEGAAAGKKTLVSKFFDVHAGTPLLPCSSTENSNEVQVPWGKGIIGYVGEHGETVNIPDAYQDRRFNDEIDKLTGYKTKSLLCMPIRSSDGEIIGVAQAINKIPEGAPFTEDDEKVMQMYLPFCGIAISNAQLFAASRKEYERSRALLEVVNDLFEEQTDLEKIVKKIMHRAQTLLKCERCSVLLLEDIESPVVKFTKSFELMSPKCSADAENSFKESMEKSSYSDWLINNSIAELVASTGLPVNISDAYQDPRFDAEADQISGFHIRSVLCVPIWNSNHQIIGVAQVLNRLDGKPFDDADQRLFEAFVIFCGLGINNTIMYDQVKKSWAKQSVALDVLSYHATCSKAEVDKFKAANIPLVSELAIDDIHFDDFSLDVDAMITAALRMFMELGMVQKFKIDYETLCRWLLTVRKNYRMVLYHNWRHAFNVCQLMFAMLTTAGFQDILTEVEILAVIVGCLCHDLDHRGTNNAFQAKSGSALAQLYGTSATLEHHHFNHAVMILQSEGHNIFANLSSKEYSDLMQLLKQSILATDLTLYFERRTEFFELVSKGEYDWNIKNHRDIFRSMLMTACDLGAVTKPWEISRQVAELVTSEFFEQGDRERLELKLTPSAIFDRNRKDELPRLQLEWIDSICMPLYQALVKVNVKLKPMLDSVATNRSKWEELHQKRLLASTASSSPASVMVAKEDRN

Regarding `COC(C)(C)Cc1ccc(-c2c(C)nc3c(N4CCOCC4)ccnn23)cn1` [compound 3, 3-[6-(2-methoxy-2-methylpropyl)-3-pyridinyl]-2-methyl-8-(4-morpholinyl)-imidazo[1,2-b]pyridazine], the IC50 is 7.94 µM in assay [1]; over 10 µM in [3]; over 10 µM in assay [4]; over 10 µM in assay [5]; over 10 µM in assay [6]; over 10 µM in assay [7]. Moreover, the figures for the IC50 in assay [8], in assay [9] (setting [11]) and in assay [9] (setting [12]) were over 10 µM, 0.0263 µM and 0.0263 µM, respectively. The ED50 (in general, the midpoint of the dose-response relation) in assay [2] was 2 mg/kg; in assay [10], 0.8 mg/kg.
For the compound `COCCOc1ccc(-c2c(C)nc3c(N4CCOCC4)ccnn23)cn1` [compound 16, 3-[6-(2-methoxyethoxy)-3-pyridinyl]-2-methyl-8-(4-morpholinyl)-imidazo[1,2-b]pyridazine], the IC50 in assay [1], in [3], in [4], in assay [5], in assay [6] and in assay [7] was over 10 µM each time. Further, the IC50 in [8] is over 10 µM; in assay [9] (setting [11]), 0.12 µM; in assay [9] (setting [12]), 0.12 µM. For the same compound, in assay [2], the receptor occupancy at 10 mg/kg was 52%. This compound gave an ED50 in [10] of 3.1 mg/kg.
Regarding `Cc1nc2c(N3CCOCC3)ccnn2c1-c1ccc(N2CCOCC2)nc1` [compound 19, 2-methyl-8-(4-morpholinyl)-3-[6-(4-morpholinyl)-3-pyridinyl]-imidazo[1,2-b]pyridazine], the IC50 in [1], in [3], in [4], in assay [5], in assay [6] and in [7] was over 10 µM each time. Moreover, the IC50 is over 10 µM in assay [8], 0.107 µM in assay [9] (setting [11]) and 0.107 µM in assay [9] (setting [12]). Besides, the receptor occupancy at 10 mg/kg in [2] worked out at 57%. The compound also showed an ED50 in assay [10] of 5 mg/kg.
`COCCc1ccc(-c2c(C3CC3)nc3c(N4CCOCC4)ccnn23)cn1` [compound 22, 2-cyclopropyl-3-[6-(2-methoxyethyl)-3-pyridinyl]-8-(4-morpholinyl)-imidazo[1,2-b]pyridazine]: the IC50 in assay [1] is 3.47 µM; in [3], 2.75 µM; in [4] it was 28.2 µM; in assay [5], over 50.1 µM; in [6], over 50.1 µM; in assay [7], 5.89 µM. Also, the IC50 in assay [8] was 6.76 µM; in assay [9] (setting [11]) it was 0.0562 µM; in assay [9] (setting [12]), 0.0562 µM. For the same compound, the values for the ED50 in assay [2] and in [10] were 0.94 mg/kg and 0.5 mg/kg, respectively.
For `CCc1ccc(-c2c(C)nc3c(N4CCOCC4)ccnn23)cn1` [compound 28, 3-(6-ethyl-3-pyridinyl)-2-methyl-8-(4-morpholinyl)-imidazo[1,2-b]pyridazine], the IC50 in [1] was 13.8 µM; in assay [3] it was 13.2 µM; in assay [4], 25.7 µM; in [5], over 100 µM; in [6] it was 30.2 µM; in assay [7] it was 26.9 µM. Moreover, the values for the IC50 in [8], in [9] (setting [11]) and in [9] (setting [12]) were 30.2 µM, 0.0832 µM and 0.0832 µM, respectively. Moreover, the figures for the ED50 in [2] and in [10] were 1.1 mg/kg and 1.2 mg/kg, respectively.
As for `Cc1nc2c(N3CCOCC3)ccnn2c1-c1ccc(N2CCNCC2)nc1` [compound 30, 2-methyl-8-(4-morpholinyl)-3-[6-(1-piperazinyl)-3-pyridinyl]-imidazo[1,2-b]pyridazine], the IC50 in [1], in assay [3], in [4], in [5], in [6] and in assay [7] was over 10 µM throughout. In addition, the IC50 is over 10 µM in [8], 0.123 µM in assay [9] (setting [11]) and 0.123 µM in assay [9] (setting [12]). In [2] (dose response sc, data between brackets), the “% occupancy at the highest dose tested” value is recorded as 6%. In addition, the ED50 is over 10 mg/kg in [2] and 7.1 mg/kg in [10].
Regarding `COC(C)(C)Cn1cc(-c2c(C3CC3)nc3c(-c4ccncc4)ccnn23)cn1` [compound 143, 2-cyclopropyl-3-[1-(2-methoxy-2-methylpropyl)-1H-pyrazol-4-yl]-8-(4-pyridinyl)-imidazo[1,2-b]pyridazine], the IC50 in [1] was 0.646 µM; in assay [3] it was 5.13 µM; in assay [4] it was 5.89 µM; in assay [5], over 10 µM; in assay [6], 1.45 µM; in assay [7], 3.98 µM. Also, the IC50 in assay [8] is 1.95 µM; in [9] (setting [11]) it was 0.0174 µM; in assay [9] (setting [12]), 0.0174 µM. Also, the ED50 in assay [10] amounted to 1.2 mg/kg.
